{
  "source": "patent US20190022221A1",
  "about": "(priority 2015, published 2019)",
  "origin": "cited, not measured here",
  "key": {"[1]": {"settings": "in vivo"}, "[2]": {"tested_on": "Venezuelan equine encephalitis virus (VEEV)"}, "[3]": {"tested_on": "Zaire Ebola virus (ZEBOV)"}, "Acinetobacter baumannii": {"tested_on": "Acinetobacter baumannii", "settings": "1.1-millimeter-thick soft agar layer, light 100 milliWatts per square centimeter"}},
  "data": [
    {"molecule": "Oc1cccc(-c2c3nc(c(-c4cccc(O)c4)c4ccc([nH]4)c(-c4cccc(O)c4)c4nc(c(-c5cccc(O)c5)c5ccc2[nH]5)CC4)C=C3)c1", "note": "[Foscan, Tetra (m-hydroxyphenyl) chlorin]", "values": [
      {"measurement": "duration of skin photosensitivity", "setting": "[1]", "value": "approximately 2 weeks"}
    ]},
    {"molecule": "[N-]=[N+]=Nc1cccc2c(I)cccc12", "note": "[INA, 1,5-iodonaphthyl azide]", "values": [
      {"measurement": "inactivation of virulent strain of VEEV", "setting": "[2]", "value": "efficiently inactivate"},
      {"measurement": "infectivity of ZEBOV after INA treatment", "setting": "[3]", "value": "completely noninfectious"}
    ]},
    {"molecule": "CC(=O)[O-].CC(=O)[O-].CCc1c(CC)c2cc3nc(cnc4cc(OCCOCCOCCOC)c(OCCOCCOCCOC)cc4ncc4nc(cc1[n-]2)C(CCCO)=C4C)C(C)=C3CCCO.O.[Lu+3]", "note": "[Lutetium texaphryin, Motexafin lutetium]", "values": [
      {"measurement": "duration of skin photosensitivity", "setting": "[1]", "value": "24 to 48", "unit": "h"}
    ]},
    {"molecule": "[Mn(PaPy3)(NO)](ClO4)", "values": [
      {"measurement": "clearance of bacteria from treated areas of the plates", "setting": "Acinetobacter baumannii", "value": "effectively cleared the bacteria"}
    ]}
  ]
}
